From the NIST ThermoML archive (doi:10.1016/j.jct.2006.03.018)

Key:
[1] = refractive index (Na D-line) (dimensionless); xn = mol fraction of the nth substance listed; settings: 101 kPa, Liquid
[2] = xn = mol fraction of the nth substance listed; settings: 101 kPa, Liquid

CC(C)CCO [3-methylbutan-1-ol] + COc1ccccc1
Settings	mass density, [2] [kg/m3]	refractive index, [1]	speed of sound, [2] [m/s]	viscosity, [2] [mPa·s]
298.15 K, x2 = 0	807.2	1.405	1241	3.835
298.15 K, x2 = 0.103	825.87	1.4159	1258	2.766
298.15 K, x2 = 0.2001	843.32	1.4269	1275	2.153
298.15 K, x2 = 0.3022	861.74	1.4378	1292	1.736
298.15 K, x2 = 0.3995	879.31	1.4487	1309	1.43
298.15 K, x2 = 0.4944	896.5	1.4579	1327	1.254
298.15 K, x2 = 0.5995	915.66	1.4688	1344	1.136
298.15 K, x2 = 0.6915	932.47	1.4797	1361	1.046
298.15 K, x2 = 0.8022	952.8	1.4906	1378	1.005
298.15 K, x2 = 0.9044	971.6	1.5015	1394	0.956
303.15 K, x2 = 0	803.45	1.403	–	3.261
303.15 K, x2 = 0.103	821.94	1.4138	–	2.408
303.15 K, x2 = 0.2001	839.25	1.4247	–	1.885
303.15 K, x2 = 0.3022	857.55	1.4355	–	1.544
303.15 K, x2 = 0.3995	875.01	1.4463	–	1.253
303.15 K, x2 = 0.4944	892.11	1.4575	–	1.135
303.15 K, x2 = 0.5995	911.16	1.468	–	1.03
303.15 K, x2 = 0.6915	929.01	1.4788	–	0.956
303.15 K, x2 = 0.8022	948.15	1.4896	–	0.938
303.15 K, x2 = 0.9044	966.9	1.5005	–	0.881
308.15 K, x2 = 0	791.86	–	–	–
308.15 K, x2 = 0.1036	808.48	1.3966	–	1.242
308.15 K, x2 = 0.2003	827.18	1.4129	–	1.078
308.15 K, x2 = 0.3055	848.11	1.4287	–	0.961
308.15 K, x2 = 0.4053	867.53	1.4426	–	0.879
308.15 K, x2 = 0.5096	888.55	1.4542	–	0.838
308.15 K, x2 = 0.6015	906.1	1.4673	–	0.821
308.15 K, x2 = 0.7071	924.94	1.4793	–	0.802
308.15 K, x2 = 0.8023	942.78	1.4897	–	0.795
308.15 K, x2 = 0.9044	960.74	1.499	–	0.792

COc1ccccc1 [anisole] + CC(C)CCO
x1 = 1
Settings	mass density, 298.15 K [kg/m3]	mass density, 303.15 K [kg/m3]	mass density, 308.15 K [kg/m3]	refractive index, 298.15 K	refractive index, 303.15 K	refractive index, 308.15 K	speed of sound, 298.15 K [m/s]	viscosity, 298.15 K [mPa·s]	viscosity, 303.15 K [mPa·s]	viscosity, 308.15 K [mPa·s]
[1]	–	–	–	1.5137	1.5113	1.5088	–	–	–	–
[2]	989.15	984.45	979.73	–	–	–	1412	0.988	0.913	0.854

COc1ccccc1 [anisole] + CC(C)O
Settings	mass density, 298.15 K [kg/m3]	mass density, 303.15 K [kg/m3]	mass density, 308.15 K [kg/m3]	refractive index, 298.15 K	refractive index, 303.15 K	refractive index, 308.15 K	speed of sound, 298.15 K [m/s]	viscosity, 298.15 K [mPa·s]	viscosity, 303.15 K [mPa·s]	viscosity, 308.15 K [mPa·s]
[1], x1 = 0.0964	–	–	–	1.3925	1.3901	1.3879	–	–	–	–
[1], x1 = 0.1995	–	–	–	1.4115	1.4075	1.4064	–	–	–	–
[1], x1 = 0.2995	–	–	–	1.4275	1.4244	1.4226	–	–	–	–
[1], x1 = 0.3965	–	–	–	1.4427	1.4399	1.438	–	–	–	–
[1], x1 = 0.4947	–	–	–	1.4571	1.4535	1.451	–	–	–	–
[1], x1 = 0.5932	–	–	–	1.4701	1.467	1.465	–	–	–	–
[1], x1 = 0.6966	–	–	–	1.482	1.4793	1.4763	–	–	–	–
[1], x1 = 0.8069	–	–	–	1.495	1.4923	1.4884	–	–	–	–
[1], x1 = 0.9052	–	–	–	1.5049	1.5018	1.4999	–	–	–	–
[1], x1 = 1	–	–	–	1.5137	1.5113	1.5088	–	–	–	–
[2], x1 = 0.0964	809.04	804.55	799.99	–	–	–	1168	1.526	1.335	1.178
[2], x1 = 0.1995	836.66	832.04	827.34	–	–	–	1195	1.236	1.101	0.988
[2], x1 = 0.2995	861.3	856.56	851.78	–	–	–	1223	1.111	1	0.906
[2], x1 = 0.3965	882.77	877.97	873.12	–	–	–	1250	1.019	0.923	0.838
[2], x1 = 0.4947	903.09	898.25	893.38	–	–	–	1277	0.959	0.872	0.798
[2], x1 = 0.5932	921.89	917.04	912.14	–	–	–	1304	0.942	0.864	0.792
[2], x1 = 0.6966	940.52	935.67	930.78	–	–	–	1331	0.91	0.837	0.775
[2], x1 = 0.8069	958.9	954.07	949.22	–	–	–	1358	0.879	0.81	0.742
[2], x1 = 0.9052	974.58	969.52	965.01	–	–	–	1384	0.847	0.783	0.72
[2], x1 = 1	989.15	984.45	979.73	–	–	–	1412	0.988	0.913	0.854

COc1ccccc1 [anisole] + CCCCCO
Settings	mass density, 298.15 K [kg/m3]	mass density, 303.15 K [kg/m3]	mass density, 308.15 K [kg/m3]	refractive index, 298.15 K	refractive index, 303.15 K	refractive index, 308.15 K	speed of sound, 298.15 K [m/s]	viscosity, 298.15 K [mPa·s]	viscosity, 303.15 K [mPa·s]	viscosity, 308.15 K [mPa·s]
[1], x1 = 0.1013	–	–	–	1.4091	1.4066	1.404	–	–	–	–
[1], x1 = 0.2032	–	–	–	1.4166	1.4138	1.4112	–	–	–	–
[1], x1 = 0.3022	–	–	–	1.4237	1.4219	1.4201	–	–	–	–
[1], x1 = 0.3946	–	–	–	1.4333	1.4302	1.4272	–	–	–	–
[1], x1 = 0.4912	–	–	–	1.4429	1.4401	1.4379	–	–	–	–
[1], x1 = 0.5984	–	–	–	1.4561	1.4533	1.451	–	–	–	–
[1], x1 = 0.6976	–	–	–	1.4667	1.4642	1.4616	–	–	–	–
[1], x1 = 0.7965	–	–	–	1.4807	1.4778	1.4747	–	–	–	–
[1], x1 = 0.8974	–	–	–	1.4963	1.4934	1.491	–	–	–	–
[1], x1 = 1	–	–	–	1.5137	1.5113	1.5088	–	–	–	–
[2], x1 = 0.1013	828.63	824.77	820.91	–	–	–	1298	2.677	2.332	2.051
[2], x1 = 0.2032	846.67	842.67	838.66	–	–	–	1311	2.005	1.773	1.575
[2], x1 = 0.3022	864.26	860.11	855.96	–	–	–	1324	1.743	1.545	1.384
[2], x1 = 0.3946	880.67	876.42	872.17	–	–	–	1336	1.513	1.359	1.219
[2], x1 = 0.4912	897.83	893.47	889.11	–	–	–	1350	1.318	1.195	1.091
[2], x1 = 0.5984	916.91	912.45	907.98	–	–	–	1361	1.18	1.072	0.979
[2], x1 = 0.6976	934.59	930.04	925.49	–	–	–	1374	1.092	0.999	0.916
[2], x1 = 0.7965	952.41	947.78	943.15	–	–	–	1388	1.004	0.927	0.853
[2], x1 = 0.8974	970.59	965.9	961.2	–	–	–	1395	0.955	0.88	0.919
[2], x1 = 1	989.15	984.45	979.73	–	–	–	1412	0.988	0.913	0.854

COc1ccccc1 [anisole] + CCCCO
Settings	mass density, 298.15 K [kg/m3]	mass density, 303.15 K [kg/m3]	mass density, 308.15 K [kg/m3]	refractive index, 298.15 K	refractive index, 303.15 K	refractive index, 308.15 K	speed of sound, 298.15 K [m/s]	viscosity, 298.15 K [mPa·s]	viscosity, 303.15 K [mPa·s]	viscosity, 308.15 K [mPa·s]
[1], x1 = 0.1064	–	–	–	1.4108	1.4069	1.4031	–	–	–	–
[1], x1 = 0.1923	–	–	–	1.4221	1.4197	1.4173	–	–	–	–
[1], x1 = 0.2988	–	–	–	1.4354	1.4332	1.4307	–	–	–	–
[1], x1 = 0.3972	–	–	–	1.4473	1.4449	1.4421	–	–	–	–
[1], x1 = 0.493	–	–	–	1.4586	1.4563	1.4535	–	–	–	–
[1], x1 = 0.5968	–	–	–	1.4719	1.4679	1.4651	–	–	–	–
[1], x1 = 0.7834	–	–	–	1.4848	1.4822	1.4795	–	–	–	–
[1], x1 = 0.8332	–	–	–	1.4911	1.4888	1.4858	–	–	–	–
[1], x1 = 0.892	–	–	–	1.5027	1.5005	1.4966	–	–	–	–
[1], x1 = 1	–	–	–	1.5137	1.5113	1.5088	–	–	–	–
[2], x1 = 0.1064	824.95	820.92	816.89	–	–	–	1258	2.015	1.778	1.576
[2], x1 = 0.1923	841.43	837.28	833.12	–	–	–	1276	1.702	1.511	1.352
[2], x1 = 0.2988	861.78	857.49	853.21	–	–	–	1298	1.409	1.261	1.136
[2], x1 = 0.3972	880.06	875.69	871.31	–	–	–	1314	1.285	1.145	1.051
[2], x1 = 0.493	897.25	892.77	888.3	–	–	–	1334	1.129	1.041	0.939
[2], x1 = 0.5968	922.83	918.26	913.66	–	–	–	1347	1.063	0.968	0.886
[2], x1 = 0.7834	930.28	925.7	921.11	–	–	–	1364	0.985	0.907	0.844
[2], x1 = 0.8332	957.86	953.17	948.47	–	–	–	1376	0.968	0.893	0.824
[2], x1 = 0.892	969.05	964.35	959.64	–	–	–	1390	0.962	0.884	0.822
[2], x1 = 1	989.15	984.45	979.73	–	–	–	1412	0.988	0.913	0.854
